Source: patent US20250271421A1, “KIT FOR QUANTITATIVE ANALYSIS OF C-REACTIVE PROTEIN, METHOD FOR QUANTITATIVE ANALYSIS OF C-REACTIVE PROTEIN, AND APPARATUS FOR PERFORMING THE SAME” (I-sens, Inc., priority 2024, published 2025)

How the values were obtained:
[1] = tested on: immunoreagent (R2) containing Anti-CRP antibodies (latex particles coated with Anti-CRP antibodies); assay: Accelerated stability by stabilizers (1), 50° C., 7 days, 1-Level CRP Serum Sample; type: physicochemical; conditions: stabilizer concentrations as in Table 4
Procedure: To select a stabilizer that ensures the storage stability of the immunoreagent (R2) containing Anti-CRP antibodies, five candidate stabilizers were chosen. Each candidate stabilizer was added to latex particles coated with Anti-CRP antibodies and dried. The reagent solution and 1-Level CRP Serum Sample (CRP 60 mg/L) were added to the dried composition to facilitate the immune reaction between CRP and Anti-CRP antibodies. After the immune reaction, the absorbance was measured to obtain the baseline measurement value for storage on day 0. […]
Furthermore, the dried compositions, containing each candidate stabilizer added to latex particles coated with Anti-CRP antibodies, were stored in an oven at 50° C. […] The immune reaction between CRP and Anti-CRP antibodies was carried out, and the absorbance after the immune reaction was measured to obtain the measurement values for storage days 1, 2, 3, 4, 5, 6, and 7.
As for the control group, the experiment was configured to measure the absorbance after the immune reaction between the 1-Level CRP Serum Sample (CRP 60 mg/L) without the addition of any stabilizer and latex particles coated with Anti-CRP antibodies.
Furthermore, deviations (Bias) were calculated based on the baseline measurement value and the measurement values obtained over the storage period. […]

[2] = tested on: immunoreagent (R2) containing Anti-CRP antibodies (latex particles coated with Anti-CRP antibodies); assay: Accelerated stability by stabilizers (2), 50° C., 7 days, 3-Level CRP Serum Samples; type: physicochemical; conditions: 100 mM
Procedure: To select a stabilizer for ensuring the storage stability of the immunoreagent (R2) containing Anti-CRP antibodies, two candidate stabilizers (Trehalose and Sucrose) with confirmed through Experimental Example 4 storage stability effects were prepared. Each candidate stabilizer was added to latex particles coated with Anti-CRP antibodies and dried. The reagent solution and 3-Level CRP Serum Samples (CRP 10 mg/L, 50 mg/L, 150 mg/L) were added to the dried compositions, and the immune reaction between CRP and Anti-CRP antibodies was carried out. After the immune reaction, the absorbance was measured to obtain the baseline measurement value of storage on day 0.
Each candidate stabilizer was added to latex particles coated with Anti-CRP antibodies, and the dried compositions were stored in an oven at 50° C. The reagent solution was stored separately under refrigeration. At 1-day intervals over a period of 7 days, the reagent solution and 3-Level CRP Serum Samples (CRP 10 mg/L, 50 mg/L, 150 mg/L) were added to the dried compositions containing each candidate stabilizer. The immune reaction between CRP and Anti-CRP antibodies was conducted, and the absorbance after the immune reaction was measured to obtain the measurement values for storage days 1, 2, 3, 4, 5, 6, and 7.
Based on the baseline measurement value and the measurement values obtained during the storage period, deviations (Bias) were calculated.
Additionally, for each condition, the experiment was repeated 5 times, and precision (CV) was calculated.
The two candidate stabilizers are listed below Table 5, and stabilizers with deviations (Bias) measured within 20% throughout the storage period were evaluated as effective for ensuring the storage stability of the immunoreagent (R2). Stabilizers with precision (CV) measured within 10% were evaluated as having excellent precision.

[3] = tested on: blood cells in fresh venous whole blood samples (HCT 48%); assay: Evaluation of hemolytic effect of hemolytic reagents (first absorbance/turbidity); type: cell-based; conditions: for first absorbance: 750 nm, below 0.05 = hemolytic effect; for hemolytic effects on the blood cells in the blood sample: in most concentration ranges
Procedure: To select hemolytic reagents with a hemolytic effect capable of lysing the blood cells in a blood sample, five candidate hemolytic reagents were selected. Each candidate hemolytic reagent was applied to fresh venous whole blood samples (HCT 48%). The background measurement values (i.e., the first turbidity or first absorbance) of samples treated with each candidate hemolytic reagent were measured. Specifically, the first absorbance of the samples was measured at a wavelength of 750 nm using the A1Care Analyzer by i-SENS, Inc.
The five candidate hemolytic reagents are listed below Table 1. […] A candidate hemolytic reagent was evaluated to have a hemolytic effect on the blood sample if the first turbidity of the sample was below 0.05.

[4] = tested on: immune reaction between CRP and Anti-CRP antibodies; assay: Evaluation of antigen-antibody reactivity by hemolytic reagents (second absorbance, 7-Level CRP Serum Samples)
Procedure: The concentrations of each candidate hemolytic reagent were determined as follows Table 2, taking into account the sample influence, including hematocrit.
Furthermore, each candidate hemolytic reagent was applied to 7-Level CRP Serum Samples, followed by an immune reaction between the hemolyzed samples and latex particles coated with Anti-CRP antibodies. Specifically, latex particles coated with Anti-CRP antibodies supplied by RANDOX were concentrated and stabilized with the addition of a stabilizer. The immune reaction was configured to occur between the hemolyzed samples and the latex particles coated with Anti-CRP antibodies.
After the immune reaction, the absorbance of each sample after the immune reaction (referred to as the second absorbance or second turbidity) was measured. Specifically, the second absorbance of the samples was measured at a wavelength of 750 nm using the A1Care Analyzer by i-SENS, Inc.
As for the control group, the experiment was designed to measure the second absorbance after the immune reaction between the 7-Level CRP Serum Samples without the addition of any hemolytic reagent and the latex particles coated with Anti-CRP antibodies. Additionally, the concentrations of the 7-Level CRP Serum Samples were varied from 0 to 195.8 mg/L, and the second absorbance was measured for each sample.

[5] = CRP Serum (50 mg/L, Mid), up to storage day 7
[6] = CRP Serum (150 mg/L, High), up to storage day 7

Question: For `OC[C@H]1O[C@H](O[C@H]2O[C@H](CO)[C@@H](O)[C@H](O)[C@H]2O)[C@H](O)[C@@H](O)[C@@H]1O` [Trehalose], which “dissolution of the dried Anti-CRP antibodies (visually confirmed)” value [1] is on record?
Answer: dissolved properly

Question: And the “deviation (Bias) compared to baseline on day 0” value ([2]; CRP Serum (10 mg/L, Low), storage days 5 and 7)?
Answer: > 20%

Question: And the “deviation (Bias) compared to baseline on day 0” value [2, 5]?
Answer: ≤ 20%

Question: And the “deviation (Bias) compared to baseline on day 0” value [2, 6]?
Answer: ≤ 20%

Question: Which first absorbance ([3]; reagent concentration range 0.10-0.11 (w/v %)) does the source give for Sodium deoxycholate [SDC] here?
Answer: greater than 0.05

Question: What about the first absorbance ([3]; reagent concentration range 0.12-0.20 (w/v %)) of the same compound?
Answer: less than 0.05

Question: What about the “hemolytic effects on the blood cells in the blood sample” value [3] of the same compound?
Answer: exhibited hemolytic effects

Question: And the “effect of the hemolytic reaction on the antigen-antibody reaction between CRP and Anti-CRP antibodies” value ([4]; 0.13% SDC, 0.03% Saponin)?
Answer: did not affect the antigen-antibody reaction

Question: How did the first absorbance ([3]; reagent concentration range 0.01-0.03 (w/v %)) turn out when `CCCCCCCCCCCCCC(=O)NCCC[N+](C)(C)CCCS(=O)(=O)[O-]` [ASB-14] was run?
Answer: greater than 0.05

Question: And the first absorbance ([3]; reagent concentration range 0.04-0.20 (w/v %))?
Answer: less than 0.05

Question: What about the “hemolytic effects on the blood cells in the blood sample” value [3] of the same compound?
Answer: exhibited hemolytic effects

Question: What about the “decrease of absorbance corresponding to the CRP concentration compared to the control group” value ([4]; 750 nm, 0.05% ASB-14, CRP serum 0 to 195.8 mg/L) of the same compound?
Answer: ≥ 50%

Question: For `OC[C@H]1O[C@@](CO)(O[C@H]2O[C@H](CO)[C@@H](O)[C@H](O)[C@H]2O)[C@@H](O)[C@@H]1O` [Sucrose], which “dissolution of the dried Anti-CRP antibodies (visually confirmed)” value [1] is on record?
Answer: dissolved properly

Question: What about the “deviation (Bias) compared to baseline on day 0” value ([2]; CRP Serum (10 mg/L, Low), up to storage day 7) of the same compound?
Answer: ≤ 20%

Question: What about the “deviation (Bias) compared to baseline on day 0” value [2, 5] of the same compound?
Answer: ≤ 20%

Question: And the “deviation (Bias) compared to baseline on day 0” value [2, 6]?
Answer: ≤ 20%
